Data as given in US7781565B2 (priority 2006, dated 2010).

System: NCI-60 cell lines
Type: cell-based, human

PDRASDG
Cell Line with which the peptide (and its tripeptide motif) is associated: Hop-62-Lung

RGVFYGK
Cell Line with which the peptide (and its tripeptide motif) is associated: H322-Lung

SNFYGSS
Cell Line (NCI-60 cell line the peptide and its motif are associated with): M14 Melanoma

AGRSCNL
Cell Line (NCI-60 cell line the peptide is associated with): HCT-116 Colon

DGPSGCS
Cell Line (NCI-60 cell line the peptide is associated with): SNB-75 CNS

DRASSWA
Cell Line (NCI-60 cell line the peptide and its motif are associated with): A498 Renal

LVSGYNG
Cell Line with which the peptide (and its tripeptide motif) is associated: Hop-92-Lung

LRASLLW
Cell Line (NCI-60 cell line the peptide is associated with): HCC-2998-Colon

PPGGLKW
Cell Line (NCI-60 cell line the peptide is associated with): SW620-Colon

AGGQSER
Cell Line with which the peptide (and its tripeptide motif) is associated: H226-Lung

PLLREVG
Cell Line the peptide is associated with (peptide recovered from phage library selection on this NCI-60 cell line): SN12C Renal

TAGSSRL
Cell Line with which the peptide (and its tripeptide motif) is associated: H322-Lung

GGRELKA
Cell Line (NCI-60 cell line the peptide and its motif are associated with): PC3 Prostate

EMGSSRG
Cell Line (NCI-60 cell line the peptide is associated with): HT-29 Colon

SSSLAGS
Cell Line the peptide is associated with (peptide recovered from phage library selection on this NCI-60 cell line): UO31 Renal

CMAGSQD
Cell Line the peptide is associated with (peptide recovered from phage library selection on this NCI-60 cell line): SN12C Renal

RGAVREM
Cell Line the peptide is associated with (peptide recovered from phage library selection on this NCI-60 cell line): SN12C Renal

ARLSLEL
Cell Line the peptide is associated with (peptide recovered from phage library selection on this NCI-60 cell line): TK-10 Renal

VYGGRSE
Cell Line the peptide is associated with (peptide recovered from phage library selection on this NCI-60 cell line): CAIK-1 Renal

CAGRARR
Cell Line (NCI-60 cell line the peptide is associated with): SNB-75 CNS

PVRRVSS
Cell Line the peptide is associated with (peptide recovered from phage library selection on this NCI-60 cell line): HS 578 T Breast

TGGSLLG
Cell Line (NCI-60 cell line the peptide and its motif are associated with): IGROV1 Ovarian
